For series [1], the target named is T1, IRR (P14616) (Homo sapiens, UniProt P14616).
T1 construct: purchased PamGene (PamChip PTK array, Upstream Kinase Analysis)
In words: PamChip tyrosine kinase microarray. It is filed as biochemical. The conditions noted are these: 0.1 µM, HL60 lysate. The procedure: The reproducible high potency of KIM-161 on leukemia cell lines was initially speculated to encompass Src tyrosine kinase inhibition. Even so, we also suspected that KIM-161 might be affecting other tyrosine kinases because the HL60 cells are not among the most Src-dependent highly proliferative cells ([Collins, 1987]). Therefore, a profiling of the kinase activities was performed after treatment with KIM-161 using PamChip® tyrosine kinase microarray. This analysis is based on incubation of cell lysate with 3D microarray that projects peptides specific for 143 tyrosine kinases. If a kinase is modified in the cells, it will be detected by phosphorylating its specific peptide in the microarray.
This test measured the activities of an array of tyrosine kinases of treated HL60 cells compared to the control (untreated cells) after incubation with KIM-161 for 48 h at concentrations of 0.001, 0.01, 0.1, 1.0, 10, and 50 µM. The log fold change (LFC) heat map was initially used to identify significant peptides affected at each concentration (Figure 5).
An Upstream Kinase Tool was used to generate a putative list of kinases responsible for phosphorylating the phosphosites on the PamChip®. It is an interpretation and is highly dependent on the contents of the underlying phosphorylation databases. Kinase score (Table 2) was used for ranking kinases based on their significance and specificity in terms of the set of peptides used for the corresponding kinase. Kinase statistics indicates the overall change of the peptide set that represents a certain kinase. Kinase statistics value of <0 indicates lower kinase activity in the lysate spiked with the compound and vice versa. Table 2 lists the 20 most changed kinases within treated HL60 cell lysates by 0.1 μM KIM-161.
Every compound had spiked into a leukemic (AML) cell line HL60 lysate at different concentrations (0.001, 0.01, 0.1, 1, 10, and 50 μM). In addition, DMSO had also spiked at a low concentration (2% v/v) to the HL60 lysate as the control. The samples were profiled on PamGene's tyrosine kinase (PTK) arrays in technical replicates, covering a total of 196 phosphorylation sites. The frozen leukemic HL60 cultured cell pellet was sent to PamGene. At PamGene, the cells were lysed in the presence of the lysis buffer and proteases inhibitor cocktail. The protein concentration was measured using the standard Bradford assay as per the PamGene SOPs. These lysates were further used for generating the PTK activity profiles. For spiking, KIM-161 was received in powder form and dissolved in DMSO at the PamGene facility, followed by storing it at −20°C in small aliquots. PamGene used its in-house bioinformatics toolbox in combination with other methods to generate the hypotheses of signaling pathways.

The test system of series [2] is MCF7 breast cancer cell line. As to the kind of experiment: SRB cytotoxicity assay. It is filed as cell-based, human. The conditions noted are these: MCF7, SRB, 72 h, read-out: IC50 ± SEM MCF7. The procedure: (§1) The compounds were screened for their anticancer activities against a variety of cancer cell lines. The cytotoxic effect of the compounds was evaluated using the sulforhodamine B (SRB) cytotoxicity assay for breast cancer line (MCF7) and prostate cancer cell line (PC3) ([Vichai and Kirtikara, 2006]; [Rana et al., 2021]) and 3-(4,5-dimethylthiazol-2-yl)-2,5-diphenyl-2H-tetrazolium bromide (MTT) assay for the colon cancer (HCT116) cell lines ([El-Huneidi et al., 2020]). The CellTiter-Blue® cell viability assay was performed on the various leukemia cell lines, HL60, NB4, and KG1a cells ([Akter et al., 2019]). The IC50 values are illustrated in Table 1.
(§2) MCF7 (breast), PC3 (prostate), and HCT116 (colon) cancer cell lines were obtained from ATCC, Manassas, VA, USA. Cells were grown in Roswell Park Memorial Institute-1640 (RPMI-1640) medium (Thermo Fisher Scientific, Inc., Waltham, MA, USA), supplemented with 10% heat inactivated fetal bovine serum (FBS), 50 units/mL of penicillin, and […] of streptomycin and maintained at 37°C in a humidified atmosphere containing 5% CO2. The cells were maintained as “monolayer culture” by serial subculturing.
(§3) Exponentially growing MCF7 and PC3 cells were collected using 0.25% Trypsin-EDTA and were then seeded in 96-well plates at a density of 1,000–2,000 cells/well in 10% FBS and penicillin/streptomycin supplemented RPMI-1640 medium. After 24 h, the cells were treated with different concentrations of the test compounds and incubated for 72 h at 37°C in a humidified atmosphere containing 5% CO2. Next, the cells were fixed by trichloroacetic acid (TCA) (10% final concentration in wells) directly to the wells and incubated for 1 h at 4°C, then the cells were washed with distilled water five times to remove excess TCA, media, serum proteins, and metabolites, followed by air drying. After that, the fixed cells were stained with 0.4% SRB dissolved in 1% acetic acid for 10 min at room temperature, and excess stain was removed by quickly rinsing with 1% acetic acid. The residual acetic acid was removed completely by air drying the plates for 24 h, and the dye was solubilized with Tris buffer (pH = 7.4, 10 mM) for 5 min on a shaker at 1,600 rpm. The optical density of each well was measured spectrophotometrically at 564 nm with an ELISA microplate reader (ChroMate-4300, FL, USA). The IC50 values were calculated according to the equation for Boltzman sigmoidal concentration–response curve using the nonlinear regression fitting models (GraphPad®, Prism Version 5).

Series [3] deals with PC3 prostate cancer cell line. In words: SRB cytotoxicity assay. The format is cell-based, human. The conditions noted are these: 72 h, read-out: IC50 ± SEM PC3. How it is done:
as §1, §2, §3

Series [4] can be described thus: Binding to mouse plasma proteins (equilibrium dialysis). It is filed as in vitro ADME. The settings on record: pH 7.4, CD-1 mouse plasma, equilibrium dialysis 22 h, read-out: Mouse plasma protein binding (% free at 37°C). The procedure:
The equilibrium dialysis method for determining plasma protein binding was performed as previously described using 96-well dialyzer plates with a molecular weight cutoff of 5K (Harvard Apparatus, Holliston, MA) and a dual-plate rotator set to maximum speed (Harvard Apparatus, Holliston, MA) located in a 37°C incubator with a 10% CO2 atmospheric environment. The assays were run in triplicate. KIM-161 was added to CD-1 mouse plasma (Innovative Research, Novi, MI, sodium heparin added as anticoagulant; pH adjusted to 7.4 with 2N HCl on the day of use) in DMSO (final DMSO concentration 0.4%) to give a 10 µM final concentration. The drug/plasma mixture and buffer (Dulbecco's PBS 1X without calcium and magnesium, Mediatech, Inc., Herndon, VA) were placed in their respective sides; the wells were capped; and the plate was placed in the rotator and allowed to dialyze for 22 h. Following dialysis, aliquots of the buffer and plasma mixture were removed and mixed with aliquots of the opposite matrix in 96-well deep plates. The concentrations of the analytes from each side of the dialysis plate were determined by LC/MS/MS on a Waters Xevo TQ instrument as described above using positive electrospray ionization. […] The fraction unbound was calculated by dividing the drug concentration in the buffer side of the dialysis plate by the drug concentration in the plasma side.

Where two headings read alike, the source gives them in different places.

T1 sequence (P14616 27-1297): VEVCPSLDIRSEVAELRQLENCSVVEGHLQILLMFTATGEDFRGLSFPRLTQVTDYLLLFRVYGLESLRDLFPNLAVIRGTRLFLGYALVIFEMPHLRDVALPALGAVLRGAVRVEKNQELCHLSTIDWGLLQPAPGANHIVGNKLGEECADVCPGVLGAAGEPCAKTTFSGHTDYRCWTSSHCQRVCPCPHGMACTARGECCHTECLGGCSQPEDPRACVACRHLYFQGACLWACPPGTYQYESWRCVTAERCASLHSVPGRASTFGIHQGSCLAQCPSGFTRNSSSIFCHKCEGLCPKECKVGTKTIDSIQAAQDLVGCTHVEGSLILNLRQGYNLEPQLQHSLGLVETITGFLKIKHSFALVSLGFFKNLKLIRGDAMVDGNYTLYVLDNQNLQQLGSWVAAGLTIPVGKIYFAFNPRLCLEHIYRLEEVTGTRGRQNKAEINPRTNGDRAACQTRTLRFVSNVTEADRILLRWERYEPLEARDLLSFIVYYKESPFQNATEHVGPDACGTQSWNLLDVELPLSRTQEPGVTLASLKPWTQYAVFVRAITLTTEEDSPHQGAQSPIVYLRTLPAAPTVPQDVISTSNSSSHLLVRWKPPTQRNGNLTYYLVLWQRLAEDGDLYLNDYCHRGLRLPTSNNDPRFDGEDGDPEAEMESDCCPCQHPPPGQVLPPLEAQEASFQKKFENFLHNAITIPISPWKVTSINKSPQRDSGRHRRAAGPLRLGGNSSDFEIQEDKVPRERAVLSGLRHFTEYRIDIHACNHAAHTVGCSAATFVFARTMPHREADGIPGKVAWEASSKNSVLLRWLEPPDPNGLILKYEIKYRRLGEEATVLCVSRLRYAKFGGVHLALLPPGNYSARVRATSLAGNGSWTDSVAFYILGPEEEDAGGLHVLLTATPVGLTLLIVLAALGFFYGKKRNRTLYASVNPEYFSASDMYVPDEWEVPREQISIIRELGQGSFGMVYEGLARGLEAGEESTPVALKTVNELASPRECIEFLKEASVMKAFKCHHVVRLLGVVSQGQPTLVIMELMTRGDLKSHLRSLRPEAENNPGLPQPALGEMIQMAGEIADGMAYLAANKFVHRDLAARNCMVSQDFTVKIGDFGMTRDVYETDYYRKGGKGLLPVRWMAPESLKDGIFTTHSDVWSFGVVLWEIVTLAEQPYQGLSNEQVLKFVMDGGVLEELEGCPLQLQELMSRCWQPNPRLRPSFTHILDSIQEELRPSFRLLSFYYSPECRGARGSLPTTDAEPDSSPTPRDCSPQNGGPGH

As to `COc1ccc(/C=C2\N=C(C)N(c3ccc(CC(=O)NCc4ccccc4)cc3)C2=O)cc1` [Compound 4c, (Z)-N-Benzyl-2-(4-(4-(4-methoxybenzylidene)-2-methyl-5-oxo-4,5-dihydro-1H-imidazol-1-yl)phenyl)acetamide], in series [1], the “Mean Final score (Kinase score)” value stood at 2.412, the “Mean Kinase Statistic” value is on record as -1.1771, the “Mean Significance Score” value is on record as 2.053 and the “Mean Specificity Score” value was determined as 0.3184. The IC50 in series [2] (Homo sapiens, MCF7, 72 h) was 1.14 µM. Moreover, in series [2], the IC50 came out at 1.14 ± 0.19 µM. For the same compound, the IC50 in series [3] turned out to be 2.14 ± 0.34 µM. Further, the IC50 in series [3] (Homo sapiens) stood at 2.13 µM. Moreover, the fraction unbound at 22 h, 10 µM in series [4] came out at 0.05.

For the origin of these results see publication PMC8766756, “Insights on Cancer Cell Inhibition, Subcellular Activities, and Kinase Profile of Phenylacetamides Pending 1H-Imidazol-5-One Variants” (Frontiers in Pharmacology, 2022).
